Measurements as given in paper PMC8781238 (European journal of medicinal chemistry, 2020).
“Also recorded” adds a separate entry of the source.

Columns and labels:
[1] = target: T1, recombinant human SphK2 (Homo sapiens, UniProt Q9NRA0); assay: ADP-Glo kinase assay, SphK2; settings: comparison of SphK1 and SphK2 activity at 125 µM compound (Fig. 5)
T1 sequence (Q9NRA0 1-654): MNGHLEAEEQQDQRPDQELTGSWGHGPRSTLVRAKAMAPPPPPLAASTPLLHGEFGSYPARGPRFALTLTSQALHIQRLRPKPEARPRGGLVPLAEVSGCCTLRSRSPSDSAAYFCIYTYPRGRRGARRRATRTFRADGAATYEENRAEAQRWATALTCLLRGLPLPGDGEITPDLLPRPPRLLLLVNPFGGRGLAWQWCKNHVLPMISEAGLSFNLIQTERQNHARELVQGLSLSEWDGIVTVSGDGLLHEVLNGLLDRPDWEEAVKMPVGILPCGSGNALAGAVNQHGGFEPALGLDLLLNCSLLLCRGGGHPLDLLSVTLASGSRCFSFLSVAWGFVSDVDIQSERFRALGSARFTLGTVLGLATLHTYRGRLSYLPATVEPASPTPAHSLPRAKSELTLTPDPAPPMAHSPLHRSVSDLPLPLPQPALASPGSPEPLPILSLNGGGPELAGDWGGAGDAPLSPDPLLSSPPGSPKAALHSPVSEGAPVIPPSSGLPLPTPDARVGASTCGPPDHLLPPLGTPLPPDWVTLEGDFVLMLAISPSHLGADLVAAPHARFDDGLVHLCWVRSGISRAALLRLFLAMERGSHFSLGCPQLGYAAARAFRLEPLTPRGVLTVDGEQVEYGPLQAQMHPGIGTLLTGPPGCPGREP

[2] = tested on: U-251 MG human glioblastoma cells; assay: In vitro cell viability assay; assay type: cell-based; settings: 125 µM, 24 hours incubation; for Antitumor activity on U-251 MG cell viability (in words): compared with compound 7 (ABC294640)
[3] = target: SphK2; settings: cited from earlier work
[4] = tested on: SphK1; settings: read-out: SphK1 IC50; cited from earlier work

Row | SMILES | Selectivity/specificity for SphK2 over SphK1 (in words) [1] | Antitumor activity on U-251 MG cell viability (in words) [2] | also measured
1 | Cl.N=C(N)N1CCC[C@H]1Cc1nc(-c2ccc(Cn3cc(C4CC4)nn3)cc2)no1 [Compound 21f, (S)-2-((3-(4-((4-Cyclopropyl-1H-1,2,3-triazol-1-yl)methyl)phenyl)-1,2,4-oxadiazol-5-yl)methyl)pyrrolidine-1-carboximidamide hydrochloride] | lowest specificity; also recorded: no selective | – | –
2 | Cl.N=C(N)N1CCC[C@H]1c1nc(-c2ccc(Cn3cc(-c4ccc(C(F)(F)F)cc4)nn3)cc2)no1 [Compound 25b] | – | highest anti-tumor activity; also recorded: tremendously decrease the viability; also recorded: strongest antitumor activity; also recorded: higher antitumor activity | –
3 | Cl.N=C(N)N1CCC[C@H]1Cc1nc(-c2ccc(Cn3cc(-c4ccccn4)nn3)cc2)no1 [Compound 21c, (S)-2-((3-(4-((4-(Pyridin-2-yl)-1H-1,2,3-triazol-1-yl)methyl)phenyl)-1,2,4-oxadiazol-5-yl)methyl)pyrrolidine-1-carboximidamide hydrochloride] | high selectivity; also recorded: highest specificity | – | –
4 | CCCCc1cn(Cc2ccc(-c3noc(C[C@@H]4CCCN4C(=N)N)n3)cc2)nn1.Cl [Compound 21d, (S)-2-((3-(4-((4-Butyl-1H-1,2,3-triazol-1-yl)methyl)phenyl)-1,2,4-oxadiazol-5-yl)methyl)pyrrolidine-1-carboximidamide hydrochloride] | lowest specificity; also recorded: no selective | – | –
5 | CCCCc1cn(Cc2ccc(-c3noc([C@@H]4CCCN4C(=N)N)n3)cc2)nn1.Cl [Compound 25f] | high selective | – | –
6 | N=C(N)N1CCC[C@H]1Cc1nc(-c2ccc(Nc3nc(-c4cccc(C(F)(F)F)c4)cs3)cc2)no1 [Compound 13] | – | – | Ki ([3]; read-out: SphK2 Ki): 0.09 µM
7 | COc1ccc(-c2cn(Cc3ccc(-c4noc([C@@H]5CCCN5C(=N)N)n4)cc3)nn2)cc1.Cl [Compound 25d] | – | comparable reduction of viability | –
8 | Cl.N=C(N)C1(c2nc(-c3ccc(Cn4cc(-c5ccccc5)nn4)cc3)no2)CC1 [Compound 29a, 1-(3-(4-((4-Phenyl-1H-1,2,3-triazol-1-yl)methyl)phenyl)-1,2,4-oxadiazol-5-yl)cyclopropanecarboximidamide hydrochloride] | highly selective | – | –
9 | Cl.Cn1cc(-c2cn(Cc3ccc(-c4noc(C5(C(=N)N)CC5)n4)cc3)nn2)cn1 [Compound 29b] | highly selective | – | –
10 | Cl.N=C(N)N1CCC[C@H]1c1nc(-c2ccc(Cn3cc(C4CC4)nn3)cc2)no1 [Compound 25h] | high selective | – | –
11 | Cl.N=C(N)N1CCC[C@H]1Cc1nc(-c2ccc(Cn3cc(-c4ccc(C(F)(F)F)cc4)nn3)cc2)no1 [Compound 21b, (S)-2-((3-(4-((4-(4-(Trifluoromethyl)phenyl)-1H-1,2,3-triazol-1-yl)methyl)phenyl)-1,2,4-oxadiazol-5-yl)methyl)-pyrrolidine-1-carboximidamide hydrochloride] | lowest specificity; also recorded: no selective | highest anti-tumor activity; also recorded: strongest antitumor activity | –
12 | Cl.Cn1cc(-c2cn(Cc3ccc(-c4noc(C[C@@H]5CCCN5C(=N)N)n4)cc3)nn2)cn1 [Compound 21g, (S)-2-((3-(4-((4-(1-Methyl-1H-pyrazol-4-yl)-1H-1,2,3-triazol-1-yl)methyl)phenyl)-1,2,4-oxadiazol-5-yl)methyl)pyrrolidine-1-carboximidamide hydrochloride] | high selectivity; also recorded: highest specificity | – | –
13 | Cl.N=C(N)N1CCC[C@H]1Cc1nc(-c2ccc(Cn3cc(-c4ccccc4)nn3)cc2)no1 [Compound 21a, (S)-2-((3-(4-((4-Phenyl-1H-1,2,3-triazol-1-yl)methyl)phenyl)-1,2,4-oxadiazol-5yl)methyl)pyrrolidine-1-carboximidamide hydrochloride] | – | highest anti-tumor activity; also recorded: strongest antitumor activity | –
14 | O=C(NCc1ccncc1)C12CC3CC(C1)CC(c1ccc(Cl)cc1)(C3)C2 [Compound 7] | – | – | IC50 [4]: ≥ 100 µM; IC50 ([3]; read-out: SphK2 IC50): ~60 µM; Reduction of cell viability of U-251 MG cells [2]: approximately 50%
15 | Cl.N=C(N)N1CCC[C@H]1c1nc(-c2ccc(Cn3cc(-c4ccccn4)nn3)cc2)no1 [Compound 25c, (S)-2-(3-(4-((4-(Pyridin-2-yl)-1H-1,2,3-triazol-1-yl)methyl)phenyl)-1,2,4-oxadiazol-5-yl)pyrrolidine-1-carboximidamide hydrochloride] | lowest specificity | – | –
16 | COc1ccc(-c2cn(Cc3ccc(-c4noc(C[C@@H]5CCCN5C(=N)N)n4)cc3)nn2)cc1.Cl [Compound 21e, (S)-2-((3-(4-((4-(4-Methoxyphenyl)-1H-1,2,3-triazol-1-yl)methyl)phenyl)-1,2,4-oxadiazol-5-yl)methyl)pyrrolidine-1-carboximidamide hydrochloride] | high selectivity; also recorded: highest specificity | comparable reduction of viability | –
